CCCCC1=NC2(CCCC2)C(=O)N1Cc1ccc(-c2ccccc2-c2nn[nH]n2)cc1
Details | solubility (mole fraction)
in 1,4-dioxane, 287.9 K | 0.000466
in 1,4-dioxane, 293.45 K | 0.000634
in 1,4-dioxane, 298 K | 0.000832
in 1,4-dioxane, 303.65 K | 0.00112
in 1,4-dioxane, 308.2 K | 0.00142
in 1,4-dioxane, 312.9 K | 0.00183
in 1,4-dioxane, 318.05 K | 0.00227
in 1,4-dioxane, 322.85 K | 0.00278
in THF, 278.3 K | 0.00127
in THF, 282.85 K | 0.00152
in THF, 288.1 K | 0.00184
in THF, 292.95 K | 0.00229
in THF, 297.7 K | 0.00277
in THF, 303.15 K | 0.00332
in THF, 308.05 K | 0.00396
in THF, 312.7 K | 0.00479
in THF, 318.35 K | 0.00581
in THF, 322.75 K | 0.00687
in acetone, 278.35 K | 0.000284
in acetone, 283.15 K | 0.000364
in acetone, 288.35 K | 0.000444
in acetone, 293.6 K | 0.00053
in acetone, 298.25 K | 0.000678
in acetone, 302.95 K | 0.000861
in acetone, 308.4 K | 0.00105
in acetone, 312.75 K | 0.00129
in acetone, 318.55 K | 0.00158
in acetone, 323.1 K | 0.00192
in chloroform, 277.7 K | 0.0012
in chloroform, 283.3 K | 0.00131
in chloroform, 287.7 K | 0.00146
in chloroform, 292.7 K | 0.00161
in chloroform, 297.75 K | 0.00179
in chloroform, 302.85 K | 0.00201
in chloroform, 307.8 K | 0.00225
in chloroform, 313.4 K | 0.00259
in chloroform, 317.8 K | 0.00294
in chloroform, 323 K | 0.00335
in ethanol, 278.6 K | 0.000333
in ethanol, 283.55 K | 0.000489
in ethanol, 288.5 K | 0.000627
in ethanol, 292.7 K | 0.000809
in ethanol, 297.8 K | 0.00106
in ethanol, 303.05 K | 0.00122
in ethanol, 308.5 K | 0.00159
in ethanol, 313.3 K | 0.0021
in ethanol, 318.5 K | 0.00263
in ethanol, 323.6 K | 0.00341

From BigSolDB 2.1
